Assay results reported in patent KR20220022782A, “아모디아퀸 및 아르테수네이트계 약물을 유효성분으로 함유하는 제2형 당뇨병 예방 또는 치료용 약학적 조성물” (priority 2020, dated 2022).

Experiments:
[1] = Cell activity (cytotoxicity) by Cell Count Kit-8 (CCK8), amodiaquine and artesunate; details: mouse, c2c12 myoblast cells
[2] = system: C2C12 myoblast cell line (C2C12 myoblast 세포주); assay: in vitro
[3] = system: Akt phosphorylation (Akt 인산화); assay: Akt phosphorylation (western blotting) in palmitic acid-induced insulin-resistant C2C12 myotubes (Example 2); type: cell-based, mouse; details: single agent; general statement
[4] = system: C2C12 myotube cell line (C2C12 myotube 세포주); assay: Glucose uptake (2-NBDG, Glucose uptake cell-based assay kit) in palmitic acid-induced insulin-resistant C2C12 myotubes (Example 3); design: species or system mouse; details: single agent; general statement

SMILES	viability at 25 µM [1]	cytotoxicity (in words) [2]	improvement of insulin resistance (in words) [3]	promotion of glucose uptake (in words) [4]	viability at 12.5 µM [1]
CCN(CC)Cc1cc(Nc2ccnc3cc(Cl)ccc23)ccc1O [아모디아퀸, 아모디아퀸(amodiaquine)]	~80%	세포 독성이 없음	미미한 수준에 불과하다	미미한 수준에 불과하다	–
C[C@H]1[C@H](OC(=O)CCC(=O)O)O[C@@H]2O[C@@]3(C)CC[C@H]4[C@H](C)CC[C@@H]1[C@@]24OO3 [아르테수네이트, 아르테수네이트(artesunate)]	–	세포 독성이 없음	–	–	~80%
